US7659426B2, “Target protein of anticancer agent and novel anticancer agent (spnal) corresponding thereto” (Reverse Proteomics Research Institute Co., Ltd., priority 2003, dated 2010)
“Also recorded” adds a separate entry of the source.

Tests used:
[1] = biological target: T1, KSRP (MARTA1, a rat protein having a high homology to KSRP) (Rattus norvegicus, UniProt Q99PF5); test: Binding experiments: compound-immobilized resins with rat brain lysate, SDS gel (FIG. 1); conditions: 4° C.
T1 construct: from tissue; host or cells: rat brain
T1 sequence (Q99PF5 1-721): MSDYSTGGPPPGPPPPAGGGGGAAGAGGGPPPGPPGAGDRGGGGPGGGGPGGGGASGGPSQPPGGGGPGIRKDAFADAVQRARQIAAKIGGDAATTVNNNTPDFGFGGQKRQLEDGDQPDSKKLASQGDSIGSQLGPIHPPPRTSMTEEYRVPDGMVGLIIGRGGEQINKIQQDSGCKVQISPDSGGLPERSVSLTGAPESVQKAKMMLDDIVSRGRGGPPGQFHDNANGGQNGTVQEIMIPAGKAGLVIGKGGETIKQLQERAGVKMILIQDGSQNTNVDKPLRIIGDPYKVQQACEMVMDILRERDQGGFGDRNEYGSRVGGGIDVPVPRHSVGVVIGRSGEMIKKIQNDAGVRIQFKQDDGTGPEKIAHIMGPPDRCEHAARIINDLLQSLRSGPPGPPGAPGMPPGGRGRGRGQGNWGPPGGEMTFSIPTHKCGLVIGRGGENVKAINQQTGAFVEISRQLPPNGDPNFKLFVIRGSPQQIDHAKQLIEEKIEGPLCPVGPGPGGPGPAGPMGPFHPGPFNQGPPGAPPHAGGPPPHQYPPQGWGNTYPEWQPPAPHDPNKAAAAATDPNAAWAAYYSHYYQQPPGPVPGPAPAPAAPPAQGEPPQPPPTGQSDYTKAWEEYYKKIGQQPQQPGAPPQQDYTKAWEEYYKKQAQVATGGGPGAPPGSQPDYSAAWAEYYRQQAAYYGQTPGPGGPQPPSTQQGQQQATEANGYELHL
Procedure: The rat brain (2.4 g) was mixed in a mixture A (25 mM Tris-HCl pH 8.0, 0.5% Tween 20, 300 μM DCC (24 ml; N,N-diethyldithiocarbamate sodium)) and prepared as a homogenate, which was then centrifuged at 9,000 rpm for 10 minutes. The centrifugal supernatant was collected and further centrifuged at 50,000 rpm for 30 minutes. The supernatant thus obtained was used as the lysate.
Each resin (10 μl) and lysate (1 ml) were gently shaken at 4° C. for about 1 hour. Thereafter, centrifugal operation was performed, and each supernatant was collected carefully. Then, each supernatant was again mixed with a fresh compound-bound resin (10 μl). At this time, the separated compound-bound resin was kept to stand at 4° C. as the resin from the first binding experiment. After the mixture was gently stirred for about 3 hours, centrifugal operation was performed, and the supernatant was removed. Subsequently, the compound-bound resin obtained in the second binding experiment and the resin obtained in the first binding experiment were gently washed with mixture A about five times to remove substances other than the protein bound onto the resin to the maximum possible extent. […]

COX2 = biological target: T2, COX2 (Homo sapiens, UniProt P35354); conditions: Cancer Research, 57, pp. 2909-2915 (1997); cited from earlier work
T2 sequence (P35354 18-604): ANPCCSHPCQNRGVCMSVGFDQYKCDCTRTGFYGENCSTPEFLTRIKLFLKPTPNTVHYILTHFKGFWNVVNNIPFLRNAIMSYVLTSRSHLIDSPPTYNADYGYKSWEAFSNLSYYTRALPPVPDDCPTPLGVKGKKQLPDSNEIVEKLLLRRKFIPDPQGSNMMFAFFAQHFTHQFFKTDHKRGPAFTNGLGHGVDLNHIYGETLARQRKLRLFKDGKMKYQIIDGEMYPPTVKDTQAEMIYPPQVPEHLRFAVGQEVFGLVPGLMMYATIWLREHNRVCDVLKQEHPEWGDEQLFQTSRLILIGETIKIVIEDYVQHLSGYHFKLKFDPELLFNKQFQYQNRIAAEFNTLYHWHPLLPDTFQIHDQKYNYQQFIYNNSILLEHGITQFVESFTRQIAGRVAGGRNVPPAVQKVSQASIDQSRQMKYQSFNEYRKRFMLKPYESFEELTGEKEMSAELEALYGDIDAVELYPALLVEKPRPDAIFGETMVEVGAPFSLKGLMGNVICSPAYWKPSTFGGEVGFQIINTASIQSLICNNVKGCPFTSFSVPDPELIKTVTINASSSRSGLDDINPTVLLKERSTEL

COX1 = COX1 (Homo sapiens, UniProt P23219); set-up: key to COX1 inhibitory effect: x: weak effect; ∘: definite inhibitory effect; conditions: cited from earlier work; for inhibitory effect on COX1: Cancer Research, 57, pp. 2909-2915 (1997)
COX1, sequence (P23219 24-599): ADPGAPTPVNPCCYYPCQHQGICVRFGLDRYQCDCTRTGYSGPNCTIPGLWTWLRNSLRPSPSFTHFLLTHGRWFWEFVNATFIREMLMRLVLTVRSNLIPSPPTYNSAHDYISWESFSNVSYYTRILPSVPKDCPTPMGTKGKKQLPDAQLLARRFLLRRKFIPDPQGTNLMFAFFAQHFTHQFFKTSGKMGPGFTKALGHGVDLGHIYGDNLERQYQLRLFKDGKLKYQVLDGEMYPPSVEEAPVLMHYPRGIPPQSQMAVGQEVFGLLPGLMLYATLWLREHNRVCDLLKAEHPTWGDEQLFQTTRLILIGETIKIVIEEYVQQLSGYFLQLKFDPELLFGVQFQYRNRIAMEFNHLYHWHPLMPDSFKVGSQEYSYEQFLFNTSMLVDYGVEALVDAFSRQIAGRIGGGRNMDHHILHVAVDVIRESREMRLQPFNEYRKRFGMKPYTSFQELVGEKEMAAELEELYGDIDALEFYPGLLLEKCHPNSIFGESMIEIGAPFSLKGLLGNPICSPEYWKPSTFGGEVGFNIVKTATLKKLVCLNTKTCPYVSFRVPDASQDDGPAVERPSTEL

Compound | binding of KSRP (MARTA1) to the compound-immobilized resin [1] | inhibitory effect on COX2 (COX2) | inhibitory effect on COX1 (COX1) | COX1 inhibitory effect (COX1)
CSc1ccc(/C=C2/C(C)=C(CC(=O)O)c3cc(F)ccc32)cc1 [Sulindac sulfide] | other than the resin immobilized with sulindac sulfide; also recorded: other than the resin wherein sulindac sulfide was immobilized | – | – | –
CC1=C(CC(=O)O)c2cc(F)ccc2/C1=C\c1ccc(S(C)(=O)=O)cc1 [Sulindac sulfone] | – | only weak inhibitory effect | only weak inhibitory effect | x
CC1=C(CC(=O)O)c2cc(F)ccc2/C1=C\c1ccc([S+](C)[O-])cc1 (centres unmarked) [Sulindac] | – | only weak inhibitory effect | only weak inhibitory effect | x
CC(=O)O[C@H]1C(=O)[C@@]2(C)[C@H]([C@H](OC(=O)c3ccccc3)[C@]3(O)C[C@H](OC(=O)[C@H](O)[C@@H](NC(=O)c4ccccc4)c4ccccc4)C(C)=C1C3(C)C)[C@]1(OC(C)=O)CO[C@@H]1C[C@@H]2O [Taxol] | binds to KSRP | – | – | –
